# Measured values: patent US20230085307A1, “PYRIDAZINONE COMPOUND AND HERBICIDE” (NISSAN CHEMICAL CORPORATION, priority 2019, published 2023)
# Experiments:
# Conditions in all cases: amount of applied herbicide 320 g/ha
# [1] = test system: barnyard grass; assay: Test Example 3: herbicidal effect by foliage application, Wagner pot (Table 18, symbol H); assay type: in vivo, barnyard grass (Echinochloa crus-galli)
# Method in brief: (§1)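 Plants were sown in alluvial soil held under 0.1–0.5 cm standing water and grown 14 days in a greenhouse at 25–30 °C. An emulsifiable formulation, water-diluted to the set dose, was then sprayed onto the foliage, and effects were scored three weeks later using previously defined criteria.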
# [2] = test system: Chinese sprangletop; assay: Test Example 3: herbicidal effect by foliage application, Wagner pot (Table 18, symbol D); assay type: in vivo, chinese sprangletop (Leptochloa chinensis)
# Method in brief: as §1
# [3] = test system: rice flat sedge; assay: Test Example 3: herbicidal effect by foliage application, Wagner pot (Table 18, symbol E); assay type: in vivo, rice flat sedge (Cyperus iria)
# Method in brief: as §1
# [4] = test system: directly sowed rice; assay: Test Example 3: effect on crop by foliage application, Wagner pot (Table 18, symbol b); assay type: in vivo
# Experimental: [Test Example 3] Herbicidal Effect Test by Foliage Application After alluvial soil was placed into 1/10000 are of Wagner pot, water was poured and mixed to form a submerged condition having a water depth of 0.1 cm to 0.5 cm. Seeds of barnyard grass, Chinese sprangletop, rice flat sedge, and rice were sowed and the pot was placed in a greenhouse at 25° C. to 30° C. for growth of the plants. After 14-day growth of the plants, the emulsion agent of the compound of the present invention prepared according to Formulation Example 2 was diluted with water so as to achieve a predetermined herbicide amount, and the diluted emulsion agent was uniformly applied to a foliage part with a small-sized spray. Three weeks after the herbicide application, the effect of the herbicide on each plant was evaluated according to the criteria of Test Example 1.
# [5] = test system: southern crabgrass; assay: Test Example 4: herbicidal effect by soil treatment (Table 19, symbol F); assay type: in vivo, southern crabgrass (Digitaria ciliaris)
# Method in brief: (§2)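 Step 1: sow seeds in sterilized diluvial soil, cover ~1.5 cm. Step 2: spray diluted emulsion onto soil surface at predetermined rate. Step 3: greenhouse, 25–30° C, three weeks. Step 4: grade effect on each plant by earlier criteria.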
# [6] = test system: green foxtail; assay: Test Example 4: herbicidal effect by soil treatment (Table 19, symbol G); assay type: in vivo, green foxtail (Setaria viridis)
# Method in brief: as §2
# [7] = test system: barnyard grass; assay: Test Example 4: herbicidal effect by soil treatment (Table 19, symbol H); assay type: in vivo, barnyard grass (Echinochloa crus-galli)
# Method in brief: as §2
# [8] = test system: wild oat; assay: Test Example 4: herbicidal effect by soil treatment (Table 19, symbol I); assay type: in vivo, wild oat (Avena fatua)
# Method in brief: as §2
# [9] = test system: blackgrass; assay: Test Example 4: herbicidal effect by soil treatment (Table 19, symbol J); assay type: in vivo, blackgrass (Alopecurus myosuroides)
# Method in brief: as §2
# [10] = test system: Italian ryegrass; assay: Test Example 4: herbicidal effect by soil treatment (Table 19, symbol K); assay type: in vivo, Italian ryegrass (Lolium multiflorum)
# Method in brief: as §2
# [11] = test system: windgrass; assay: Test Example 4: herbicidal effect by soil treatment (Table 19, symbol L); assay type: in vivo, windgrass (Apera spica-venti)
# Method in brief: as §2
# [12] = test system: velvetleaf; assay: Test Example 4: herbicidal effect by soil treatment (Table 19, symbol M); assay type: in vivo, velvetleaf (Abutilon theophrasti)
# Method in brief: as §2
# [13] = test system: redroot pigweed; assay: Test Example 4: herbicidal effect by soil treatment (Table 19, symbol N); assay type: in vivo, redroot pigweed (Amaranthus retroflexus)
# Method in brief: as §2
# [14] = test system: lambsquarters; assay: Test Example 4: herbicidal effect by soil treatment (Table 19, symbol O); assay type: in vivo, lambsquarters (Chenopodium album)
# Method in brief: as §2
# [15] = test system: chickweed; assay: Test Example 4: herbicidal effect by soil treatment (Table 19, symbol P); assay type: in vivo, common chickweed (Stellaria media)
# Method in brief: as §2
# [16] = test system: persian speedwell; assay: Test Example 4: herbicidal effect by soil treatment (Table 19, symbol R); assay type: in vivo, Persian speedwell (Veronica persica)
# Method in brief: as §2
# [17] = test system: corn; assay: Test Example 4: effect on crop by soil treatment (Table 19, symbol c); assay type: in vivo
# Description: (§3) [Test Example 4] Herbicidal Effect Test by Soil Treatment
# (§4) Sterilized diluvial soil was placed in a plastic box having a length of 21 cm, a width of 13 cm, and a depth of 7 cm. The seeds of each of southern crabgrass, green foxtail, barnyard grass, wild oat, blackgrass, Italian ryegrass, windgrass, velvetleaf, redroot pigweed, lambsquarters, chickweed, false cleavers, persian speedwell, corn, soybean, rice, wheat, beet, and rapeseed were sowed in a spot-like manner and covered with the soil having a thickness of about 1.5 cm. Subsequently, the emulsion agent of the compound of the present invention prepared according to Formulation Example 2 was diluted with water so as to achieve a predetermined herbicide amount, and the diluted emulsion agent was uniformly applied to the surface of the soil with a small-sized spray. The plastic box was placed in a greenhouse at 25° C. to 30° C. for growth of the plants. Three weeks after the herbicide application, the effect of the herbicide on each plant was evaluated according to the criteria of Test Example 1.
# [18] = test system: soybean; assay: Test Example 4: effect on crop by soil treatment (Table 19, symbol d); assay type: in vivo
# Description: as §3, §4
# [19] = test system: wheat; assay: Test Example 4: effect on crop by soil treatment (Table 19, symbol e); assay type: in vivo
# Description: as §3, §4
structure (smiles),measurement,setting,value
"COc1ccccc1-c1sc2ccc(C3CC3)cc2c1-c1c(O)c(C)nn(C)c1=O [Compound No. 2-160, 4-(5-cyclopropyl-2-(2-methoxyphenyl)benzo[b]thiophen-3-yl)-5-hydroxy-2,6-dimethylpyridazin-3(2H)-one]",herbicidal effect on H: barnyard grass,[1],4 (Herbicidal rate of 70% or more and less than 90%)
same,herbicidal effect on D: Chinese sprangletop,[2],3 (Herbicidal rate of 40% or more and less than 70%)
same,herbicidal effect on E: rice flat sedge,[3],3 (Herbicidal rate of 40% or more and less than 70%)
same,effect on crop b: directly sowed rice,[4],0 (Herbicidal rate of 5% or less (almost no effect))
same,"F: southern crabgrass, herbicidal effect rating",[5],0 (Herbicidal rate of 5% or less (almost no effect))
same,"G: green foxtail, herbicidal effect rating",[6],0 (Herbicidal rate of 5% or less (almost no effect))
same,"H: barnyard grass, herbicidal effect rating",[7],0 (Herbicidal rate of 5% or less (almost no effect))
same,"I: wild oat, herbicidal effect rating",[8],0 (Herbicidal rate of 5% or less (almost no effect))
same,"J: blackgrass, herbicidal effect rating",[9],0 (Herbicidal rate of 5% or less (almost no effect))
same,"K: Italian ryegrass, herbicidal effect rating",[10],0 (Herbicidal rate of 5% or less (almost no effect))
same,"L: windgrass, herbicidal effect rating",[11],3 (Herbicidal rate of 40% or more and less than 70%)
same,"M: velvetleaf, herbicidal effect rating",[12],0 (Herbicidal rate of 5% or less (almost no effect))
same,"N: redroot pigweed, herbicidal effect rating",[13],0 (Herbicidal rate of 5% or less (almost no effect))
same,"O: lambsquarters, herbicidal effect rating",[14],0 (Herbicidal rate of 5% or less (almost no effect))
same,"P: chickweed, herbicidal effect rating",[15],1 (Herbicidal rate of 5% or more and less than 20%)
same,"R: persian speedwell, herbicidal effect rating",[16],1 (Herbicidal rate of 5% or more and less than 20%)
same,"c: corn, effect on crop rating",[17],0 (Herbicidal rate of 5% or less (almost no effect))
same,"d: soybean, effect on crop rating",[18],0 (Herbicidal rate of 5% or less (almost no effect))
same,"e: wheat, effect on crop rating",[19],0 (Herbicidal rate of 5% or less (almost no effect))
